In PMC6017331, “Bacterial Production, Characterization and Protein Modeling of a Novel Monofuctional Isoform of FAD Synthase in Humans: An Emergency Protein?” (Molecules : A Journal of Synthetic Chemistry and Natural …, 2018):
One block for each compound: values may come before it.

Key:
[1] = target: T1, hFADS6 (6-His-hFADS6; human FAD synthase isoform 6) (Homo sapiens, UniProt Q8NFF5); test: fluorimetric FAD synthesis, Michaelis-Menten fit; type: biochemical; settings: 5 mM MgCl2, 50 mM Tris/HCl pH 7.5, 37 °C
T1 construct: gene FLAD1; 320 residues (963 bp cDNA) from Met268 of FADS1, PAPS reductase domain plus N-terminal extension; E. coli Rosetta(DE3)pLysS; monomer
T1 sequence (Q8NFF5 268-587): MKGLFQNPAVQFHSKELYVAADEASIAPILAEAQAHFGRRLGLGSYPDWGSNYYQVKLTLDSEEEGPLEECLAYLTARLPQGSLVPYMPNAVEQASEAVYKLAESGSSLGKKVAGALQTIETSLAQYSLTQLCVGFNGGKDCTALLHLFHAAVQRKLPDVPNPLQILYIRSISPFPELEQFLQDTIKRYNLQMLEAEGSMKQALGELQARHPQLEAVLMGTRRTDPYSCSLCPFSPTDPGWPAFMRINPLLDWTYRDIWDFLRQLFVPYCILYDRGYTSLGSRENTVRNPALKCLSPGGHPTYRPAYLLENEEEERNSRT

[2] = target: T1, hFADS6 (6-His-hFADS6; human FAD synthase isoform 6); test: fluorimetric FAD pyrophosphorolysis; type: biochemical; settings: NaPPi, 5 mM MgCl2, 50 mM Tris/HCl pH 7.5, 37 °C; reverse reaction; detection limit of the instrument; read-out: KmFAD
[3] = target: T1, hFADS6 (6-His-hFADS6; human FAD synthase isoform 6); test: absorbance spectrum and HPLC of acid-extracted flavin from purified protein; type: binding; settings: co-purified from E. coli; tightly but not covalently bound
[4] = target: human FAD synthase isoform 2 (6-His-hFADS2) (human); test: SEC-MALS; tandem HPLC-GPC/LS on a Superose 12 10/300 GL column, 0.5 mL/min, 40 mM Hepes/Na, 150 mM NaCl, pH 7.4; MALS masses taken from the peaks run with 1 mM DTT

Sequence of human FAD synthase isoform 2 (6-His-hFADS2) (enzyme) (Q8NFF5 98-587): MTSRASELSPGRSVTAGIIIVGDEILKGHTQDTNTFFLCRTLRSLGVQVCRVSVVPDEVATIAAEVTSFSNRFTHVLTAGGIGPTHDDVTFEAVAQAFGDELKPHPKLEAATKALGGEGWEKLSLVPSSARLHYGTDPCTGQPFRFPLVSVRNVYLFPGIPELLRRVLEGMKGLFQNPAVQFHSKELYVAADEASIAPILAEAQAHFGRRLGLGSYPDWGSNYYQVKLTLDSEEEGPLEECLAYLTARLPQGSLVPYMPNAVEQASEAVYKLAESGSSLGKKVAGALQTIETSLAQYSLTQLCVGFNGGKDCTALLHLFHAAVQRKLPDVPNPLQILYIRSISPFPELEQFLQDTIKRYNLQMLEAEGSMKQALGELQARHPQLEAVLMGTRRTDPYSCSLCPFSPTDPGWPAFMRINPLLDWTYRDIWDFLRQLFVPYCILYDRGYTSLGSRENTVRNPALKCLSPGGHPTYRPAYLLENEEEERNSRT

- Km ([1]; 2 µM FMN, read-out: KmATP (apparent)): 6.91 ± 0.51 µM
Compound: Nc1ncnc2c1ncn2[C@@H]1O[C@H](COP(=O)(O)OP(=O)(O)OP(=O)(O)O)[C@@H](O)[C@H]1O [ATP]

- Km [2]: < 0.1 µM
Compound: Cc1cc2nc3c(=O)[nH]c(=O)nc-3n(C[C@H](O)[C@H](O)[C@H](O)COP(=O)(O)OP(=O)(O)OC[C@H]3O[C@@H](n4cnc5c(N)ncnc54)[C@H](O)[C@@H]3O)c2cc1C [FAD]
- FAD/monomer ratio [3]: demonstrates that the bound cofactor is FAD

- Km ([1]; 100 µM ATP, read-out: KmFMN (apparent)): 0.13 ± 0.01 µM
Compound: Cc1cc2nc3c(=O)[nH]c(=O)nc-3n(C[C@H](O)[C@H](O)[C@H](O)COP(=O)(O)O)c2cc1C [FMN]

- stoichiometry N [4]: 2
Compound: human FAD synthase isoform 2 (6-His-hFADS2) (enzyme)
